Measured values reported in patent US20250228954A1, “Designing Antisense Oligonucleotide Delivery Peptides by Interpretable Machine Learning” (Sarepta Therapeutics, Inc., priority 2020, published 2025).

Tests used:
[1] = test system: HeLa 654 cells; experiment: Cytotoxicity by gated cell count and propidium iodide staining in flow cytometry; format: cell-based, human; settings: at the concentrations tested in dose-response, 22 h
Text: The different modules led to several noticeable trends in the level of cellular fluorescence (FIG. 6). When module 2 was DPV6, the overall construct consistently led to high fluorescence, regardless of which peptides were placed in module 3 and 4. However, when either pVEC or TP10 was placed in module 2, minor cellular fluorescence was observed. A gated cell count was used during flow cytometry as an indirect read-out to control for the toxicity of the compounds. Highly toxic compounds led to a reduction in overall cell count and non-viable cells were gated out based upon propidium iodide staining. In this experiment, it was observed that when the module 3 peptide was the nuclear localization sequence KRVK, lower cell counts were consistently observed.
In the same format as described above, HeLa 654 cells were treated with varying concentrations of Mach 2, 3, 4, and 7 for 22 hours and analyzed by flow cytometry.
(§1) HeLa 654 cells were maintained in MEM supplemented with 10% (v/v) fetal bovine serum (FBS) and 1% (v/v) penicillin-streptomycin at 37° C. and 5% CO2. Eighteen hours prior to treatment, the cells were plated at a density of 5,000 cells per well in a 96-well plate in MEM supplemented with 10% FBS and 1% penicillin-streptomycin. The day of the experiment, the 384 well plate containing the crude reaction mixtures in DMSO was diluted to 100 μM by the addition of 16.8 μL of PBS to the 3.2 μL reaction mixture. Then, each construct was diluted to 5 μM in MEM supplemented with 10% FBS and 1% penicillin-streptomycin. Cells were incubated with each conjugate at a concentration of 5 μM for 22 hours at 37° C. and 5% CO2. Next, the treatment media was aspirated the cells were incubated with Trypsin-EDTA 0.25% for 15 min at 37° C. and 5% CO2, washed 1× with PBS, and resuspended in PBS with 2% FBS and 2 μg/mL propidium iodide. Flow cytometry analysis was carried out on a BD LSRII flow cytometer. Gates were applied to the data to ensure that cells that were highly positive for propidium iodide or had forward/side scatter readings that were sufficiently different from the main cell population were excluded. Each sample was capped at 5,000 gated events.

[2] = test system: HeLa 654 cells; experiment: HeLa-654 eGFP assay (corrective splicing / exon skipping by PMO IVS2-654); format: cell-based, human; settings: 5 μM, 22 h; for FOLD OVER PMO: eGFP fluorescence of PMO-peptide conjugate relative to unconjugated PMO
Procedure: With the 36 constructs synthesized, the ability to modulate PMO activity using the modified HeLa cell assay was tested. The HeLa-654 cells were stably transfected to express a nonfluorescent eGFP protein. The eGFP gene is interrupted by a mutant intron from the human β-globin gene (IVS2-654). The insertion alters pre-mRNA splicing to cause retention of a fragment in the mature mRNA that results in a nonfluorescent protein. PMO IVS2-654 base-pairs with the B-globin insertion, modifies mRNA splicing, and thereby leads to expression of fluorescent eGFP.
For treatment, the crude reaction mixture was diluted to 5 μM in media. The concentration of the modular construct was calculated based on the original concentration of the module 1-2 conjugate mixed in the reaction. Using media containing 10% fetal bovine serum (FBS), the cells were treated with each construct for 22 hours, after which the cellular fluorescence was measured by flow cytometry.
From the lists of hundreds of predicted peptide sequences, twenty candidates were selected that varied in length, charge, and predicted activity to synthesize and test. Just as with the PMO-peptide library, the PMO-Mach constructs were first tested for PMO delivery in the HeLa 654 assay at 5 μM in complete media for 22 hours and analyzed by flow cytometry (FIG. 14). Experiments were conducted using three technical triplicates and two or three biological replicates.
as §1
Analysis was conducted using Graphpad Prism 7. For each sample, the mean fluorescence intensity and the number of gated cells was measured (FIGS. 8 and 9) and the intensity multiplied by the cell number was calculated (FIG. 7).

CSCC[C@H](NC(=O)[C@H](CCCCN)NC(=O)[C@H](CCCCN)NC(=O)[C@@H]1CCCN1C(=O)[C@H](CCC(N)=O)NC(=O)[C@@H]1CCCN1C(=O)[C@@H](NC(=O)[C@H](CCCCN)NC(=O)[C@H](CCCCN)NC(=O)[C@H](CCCCN)NC(=O)[C@@H]1CCCN1C(=O)[C@H](Cc1c[nH]c2ccccc12)NC(=O)[C@H](CCCNC(=N)N)NC(=O)[C@H](Cc1c[nH]cn1)NC(=O)[C@H](CCCCN)NC(=O)[C@H](CCCCN)NC(=O)[C@H](CCCCN)NC(=O)[C@H](CC(N)=O)NC(=O)[C@H](CCC(N)=O)NC(=O)[C@H](CCCCN)NC(=O)[C@H](CCCCN)NC(=O)CNC(=O)[C@H](CCCCN)NC(=O)[C@H](CCCCN)NC(=O)CCCCn1nnc2c1-c1ccccc1N(C(=O)CCCCC(=O)N1C[C@@H](COP(=O)(N(C)C)N3C[C@@H](COP(=O)(N(C)C)N4C[C@@H](COP(=O)(N(C)C)N5C[C@@H](COP(=O)(N(C)C)N6C[C@@H](COP(=O)(N(C)C)N7C[C@@H](COP(=O)(N(C)C)N8C[C@@H](COP(=O)(N(C)C)N9C[C@@H](COP(=O)(N(C)C)N%10C[C@@H](COP(=O)(N(C)C)N%11C[C@@H](COP(=O)(N(C)C)N%12C[C@@H](COP(=O)(N(C)C)N%13C[C@@H](COP(=O)(N(C)C)N%14C[C@@H](COP(=O)(N(C)C)N%15C[C@@H](COP(=O)(N(C)C)N%16C[C@@H](COP(=O)(N(C)C)N%17C[C@@H](COP(=O)(N(C)C)N%18C[C@@H](COP(=O)(N(C)C)N%19C[C@@H](COP(=O)(N(C)C)N%20CCN(C(=O)OCCOCCOCCO)CC%20)O[C@@H](n%20cnc%21c(=O)[nH]c(N)nc%21%20)C%19)O[C@@H](n%19ccc(N)nc%19=O)C%18)O[C@@H](n%18cc(C)c(=O)[nH]c%18=O)C%17)O[C@@H](n%17cnc%18c(N)ncnc%18%17)C%16)O[C@@H](n%16cc(C)c(=O)[nH]c%16=O)C%15)O[C@@H](n%15cc(C)c(=O)[nH]c%15=O)C%14)O[C@@H](n%14cnc%15c(N)ncnc%15%14)C%13)O[C@@H](n%13ccc(N)nc%13=O)C%12)O[C@@H](n%12ccc(N)nc%12=O)C%11)O[C@@H](n%11cc(C)c(=O)[nH]c%11=O)C%10)O[C@@H](n%10cc(C)c(=O)[nH]c%10=O)C9)O[C@@H](n9cnc%10c(N)ncnc%109)C8)O[C@@H](n8cnc9c(N)ncnc98)C7)O[C@@H](n7ccc(N)nc7=O)C6)O[C@@H](n6ccc(N)nc6=O)C5)O[C@@H](n5ccc(N)nc5=O)C4)O[C@@H](n4cnc5c(N)ncnc54)C3)O[C@@H](n3cnc4c(=O)[nH]c(N)nc43)C1)Cc1ccccc1-2)C(C)C)C(=O)N[C@@H](Cc1ccccc1)C(=O)N[C@@H](CCCCN)C(=O)N[C@@H](CCC(N)=O)C(=O)NCC(=O)N[C@@H](C)C(=O)NCCC(=O)NCCCCCC(=O)N[C@@H](CCCNC(=N)N)C(=O)NCCCCCC(N)=O (some centres unmarked) [MACH 4]
cytotoxicity as determined by cell count and PI staining [1]: no cytotoxicity | FOLD OVER PMO [2]: 25

CC[C@H](C)[C@H](NC(=O)[C@H](CC(C)C)NC(=O)[C@H](CCCNC(=N)N)NC(=O)CCCCCNC(=O)[C@H](Cc1ccc(O)cc1)NC(=O)[C@H](CCCCN)NC(=O)CCCCCNC(=O)[C@H](C)NC(=O)[C@H](CO)NC(=O)[C@H](CCCNC(=N)N)NC(=O)[C@H](C)NC(=O)[C@H](CCCCN)NC(=O)[C@H](Cc1c[nH]c2ccccc12)NC(=O)[C@H](CC(C)C)NC(=O)[C@H](Cc1c[nH]c2ccccc12)NC(=O)[C@H](CCCCN)NC(=O)[C@H](CCCCN)NC(=O)[C@H](CCCCN)NC(=O)[C@H](CCC(N)=O)NC(=O)[C@H](CCCCN)NC(=O)[C@H](CO)NC(=O)[C@H](CO)NC(=O)[C@H](CCCCN)NC(=O)[C@H](CCCCN)NC(=O)[C@H](CC(C)C)NC(=O)[C@H](CCCNC(=N)N)NC(=O)[C@H](CCCCN)NC(=O)[C@H](CCCCN)NC(=O)[C@H](CCCCN)NC(=O)[C@H](Cc1c[nH]c2ccccc12)NC(=O)[C@H](CC(C)C)NC(=O)[C@H](C)NC(=O)[C@H](C)NC(=O)[C@H](C)NC(=O)[C@@H]1CCCN1C(=O)[C@@H](NC(=O)[C@H](CCCCN)NC(=O)[C@H](Cc1c[nH]c2ccccc12)NC(=O)[C@H](C)NC(=O)[C@H](CCCNC(=N)N)NC(=O)[C@H](C)NC(=O)[C@H](C)NC(=O)CCNC(=O)[C@H](CCC(N)=O)NC(=O)[C@@H](NC(=O)[C@H](C)NC(=O)CCCCCNC(=O)[C@@H]1CCCN1C(=O)[C@H](Cc1c[nH]cn1)NC(=O)[C@H](CCCCN)NC(=O)CCCCCNC(=O)CCCCn1nnc2c1-c1ccccc1N(C(=O)CCCCC(=O)N1C[C@@H](COP(=O)(N(C)C)N3C[C@@H](COP(=O)(N(C)C)N4C[C@@H](COP(=O)(N(C)C)N5C[C@@H](COP(=O)(N(C)C)N6C[C@@H](COP(=O)(N(C)C)N7C[C@@H](COP(=O)(N(C)C)N8C[C@@H](COP(=O)(N(C)C)N9C[C@@H](COP(=O)(N(C)C)N%10C[C@@H](COP(=O)(N(C)C)N%11C[C@@H](COP(=O)(N(C)C)N%12C[C@@H](COP(=O)(N(C)C)N%13C[C@@H](COP(=O)(N(C)C)N%14C[C@@H](COP(=O)(N(C)C)N%15C[C@@H](COP(=O)(N(C)C)N%16C[C@@H](COP(=O)(N(C)C)N%17C[C@@H](COP(=O)(N(C)C)N%18C[C@@H](COP(=O)(N(C)C)N%19C[C@@H](COP(=O)(N(C)C)N%20CCN(C(=O)OCCOCCOCCO)CC%20)O[C@@H](n%20cnc%21c(=O)[nH]c(N)nc%21%20)C%19)O[C@@H](n%19ccc(N)nc%19=O)C%18)O[C@@H](n%18cc(C)c(=O)[nH]c%18=O)C%17)O[C@@H](n%17cnc%18c(N)ncnc%18%17)C%16)O[C@@H](n%16cc(C)c(=O)[nH]c%16=O)C%15)O[C@@H](n%15cc(C)c(=O)[nH]c%15=O)C%14)O[C@@H](n%14cnc%15c(N)ncnc%15%14)C%13)O[C@@H](n%13ccc(N)nc%13=O)C%12)O[C@@H](n%12ccc(N)nc%12=O)C%11)O[C@@H](n%11cc(C)c(=O)[nH]c%11=O)C%10)O[C@@H](n%10cc(C)c(=O)[nH]c%10=O)C9)O[C@@H](n9cnc%10c(N)ncnc%109)C8)O[C@@H](n8cnc9c(N)ncnc98)C7)O[C@@H](n7ccc(N)nc7=O)C6)O[C@@H](n6ccc(N)nc6=O)C5)O[C@@H](n5ccc(N)nc5=O)C4)O[C@@H](n4cnc5c(N)ncnc54)C3)O[C@@H](n3cnc4c(=O)[nH]c(N)nc43)C1)Cc1ccccc1-2)C(C)C)C(C)C)C(N)=O (some centres unmarked) [MACH 7]
cytotoxicity as determined by cell count and PI staining [1]: no cytotoxicity | PMO delivery / activity, result in words [2]: nearly identical | FOLD OVER PMO [2]: 36
